# ChEMBL document CHEMBL4616718, “Discovery of Potent Small-Molecule Inhibitors of MLL Methyltransferase” (ACS Med Chem Lett, 2020)
# Target: MLL1-ASH2L/RbBP5/WDR5/DPY30
# Assay: Inhibition of recombinant human MLL1 complex (MLL1/Ash2L/RbBP5/WDR5/DPY-30) expressed in Escherichia coli Rosetta 2 (DE3) cells using H3 (1 to 21) peptide as substrate incubated for 1 hr in presence of 3[H] SAM by […] assay
row,Compound,IC50 [nM]
1,Nc1ncnc2c1ncn2[C@@H]1O[C@H](CSCC[C@H](N)C(=O)O)[C@@H](O)[C@H]1O [S-ADENOSYLHOMOCYSTEINE],724
2,Nc1ncnc2c1ncn2[C@@H]1O[C@H](CN(CC[C@H](N)C(=O)O)CC2CN(Cc3ccsc3)C2)[C@@H](O)[C@H]1O,15.2
3,Nc1ncnc2c1ncn2[C@@H]1O[C@H](CN(CC[C@H](N)C(=O)O)C2CN(CCCC3CCCC3)C2)[C@@H](O)[C@H]1O,234
4,Nc1ncnc2c1ncn2[C@@H]1O[C@H](CN(CC[C@H](N)C(=O)O)CC2CN(Cc3ccoc3)C2)[C@@H](O)[C@H]1O,21.8
5,Nc1ncnc2c1ncn2[C@@H]1O[C@H](CN(CC[C@H](N)C(=O)O)C2CC(CNCCCc3ccccc3)C2)[C@@H](O)[C@H]1O (some centres undefined),451
6,Nc1ncnc2c1ncn2[C@@H]1O[C@H](CN(CC[C@H](N)C(=O)O)CC2CN(Cc3coc4ccccc34)C2)[C@@H](O)[C@H]1O,119
7,Nc1ncnc2c1ncn2[C@@H]1O[C@H](CN(CCCNCCCc2ccccc2)CC[C@H](N)C(=O)O)[C@@H](O)[C@H]1O,201
8,Nc1ncnc2c1ncn2[C@@H]1O[C@H](CN(CC[C@H](N)C(=O)O)CC2CN(Cc3ccccc3)C2)[C@@H](O)[C@H]1O,46.8
9,Nc1ncnc2c1ncn2[C@@H]1O[C@H](CN(CC[C@H](N)C(=O)O)CC2CN(CCCc3ccccc3)C2)[C@@H](O)[C@H]1O,29.6
10,Nc1ncnc2c1ncn2[C@@H]1O[C@H](CN(CC[C@H](N)C(=O)O)Cc2cn(CCc3ccccc3)nn2)[C@@H](O)[C@H]1O,132
11,Nc1ncnc2c1ncn2[C@@H]1O[C@H](CN(CC[C@H](N)C(=O)O)CC2CN(Cc3cccc(Cl)c3)C2)[C@@H](O)[C@H]1O,99.5
12,Nc1ncnc2c1ncn2[C@@H]1O[C@H](CN(CC[C@H](N)C(=O)O)CC2CN(Cc3ccc(Cl)cc3)C2)[C@@H](O)[C@H]1O,55.6
13,Nc1ncnc2c1ncn2[C@@H]1O[C@H](CN(CC[C@H](N)C(=O)O)CC2CN(Cc3ccccc3Cl)C2)[C@@H](O)[C@H]1O,150
14,Nc1ncnc2c1ncn2[C@@H]1O[C@H](CN(CC[C@H](N)C(=O)O)CC2CN(CCCC3CCCC3)C2)[C@@H](O)[C@H]1O,25.5
15,CCCCN1CC(CN(CC[C@H](N)C(=O)O)C[C@H]2O[C@@H](n3cnc4c(N)ncnc43)[C@H](O)[C@@H]2O)C1,72.4
16,Nc1ncnc2c1ncn2[C@@H]1O[C@H](CN(CC[C@H](N)C(=O)O)CC2CN(CCC(c3ccccc3)c3ccccc3)C2)[C@@H](O)[C@H]1O,138
17,NCCN(CC[C@H](N)C(=O)O)C[C@H]1O[C@@H](n2cnc3c(N)ncnc32)[C@H](O)[C@@H]1O,592
18,Nc1ncnc2c1ncn2[C@@H]1O[C@H](CN(CC[C@H](N)C(=O)O)CC2CN(Cc3cccs3)C2)[C@@H](O)[C@H]1O,66.5
19,Nc1ncnc2c1ncn2[C@@H]1O[C@H](CN(CC[C@H](N)C(=O)O)C2CC(NCCCC3CCCC3)C2)[C@@H](O)[C@H]1O (some centres undefined),127
